Calls of active or inactive are those of the source. Cut-off read from the data, not from the text of the source, for most assays here: actives have a measured EC50 and inactives only a lower limit.
Columns and labels:
[1] = target: T1, Rac GTPase-activating protein 1 (Homo sapiens, UniProt Q9H0H5); experiment: blockers of MgcRacGAP-driven Rac1 GTP hydrolysis – biochemical, ADP Hunter fluorescence, primary and confirmatory, confirmation (AID 624330); assay type: functional
T1 sequence (Q9H0H5 whole entry): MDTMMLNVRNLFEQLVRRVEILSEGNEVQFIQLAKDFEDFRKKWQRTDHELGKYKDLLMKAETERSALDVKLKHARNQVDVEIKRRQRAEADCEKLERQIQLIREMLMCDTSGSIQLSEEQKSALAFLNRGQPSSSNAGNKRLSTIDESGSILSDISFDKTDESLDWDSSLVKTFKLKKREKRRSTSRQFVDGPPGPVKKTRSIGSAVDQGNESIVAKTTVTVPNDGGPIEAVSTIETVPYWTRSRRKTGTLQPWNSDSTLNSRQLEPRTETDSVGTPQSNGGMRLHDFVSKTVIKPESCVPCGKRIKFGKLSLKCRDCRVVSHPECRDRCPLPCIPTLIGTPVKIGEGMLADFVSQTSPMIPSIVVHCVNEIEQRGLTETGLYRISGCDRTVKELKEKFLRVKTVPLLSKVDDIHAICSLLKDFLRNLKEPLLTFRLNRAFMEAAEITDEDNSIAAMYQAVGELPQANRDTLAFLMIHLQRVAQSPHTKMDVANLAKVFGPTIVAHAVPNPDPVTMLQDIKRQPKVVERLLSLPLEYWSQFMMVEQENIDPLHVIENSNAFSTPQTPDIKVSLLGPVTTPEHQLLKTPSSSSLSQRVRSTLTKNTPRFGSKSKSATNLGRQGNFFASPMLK

H4 = experiment: Luminescence Cell-Based Dose Response HTS to Identify Activators of 5'UTR Stem-Loop Driven Prion Protein mRNA Translation in H4 Neuroglioblastoma Cells. [Related pubchem assays: 1829 (Project Summary), 1814 (Primary HTS)]; assay type: functional; settings: Homo sapiens
[2] = Luminescence Cell-Based Dose Confirmation HTS to Identify Activators of 5'UTR Stem-Loop Driven Alpha-Synuclein mRNA Translation in H4 Neuroglioblastoma Cells. [Related pubchem assays: 1829 (Project Summary), 1814 (Primary HTS)]; assay type: functional
[3] = Luminescence Cell-Based Dose Response HTS to Identify Activators of Luciferase Translation or Activity in H4 […] Cells. [Related pubchem assays: 1829 (Project Summary), 1814 (Primary HTS)]; assay type: functional
[4] = alpha-synuclein stem-loop luciferase translation blockers – H4 neuroglioma cells, luminescence, confirmation (AID 1988); assay type: functional, cell-based
[5] = Luminescence Cell-Based Dose Response HTS to Identify Inhibitors of 5'UTR Stem-Loop Driven Prion Protein mRNA Translation in H4 Neuroglioblastoma Cells. [Related pubchem assays: 1827 (Project Summary), 1813 (Primary HTS)]; assay type: functional
[6] = luciferase reporter signal suppression in cells – H4 neuroglioma cells, luminescence, dose response (AID 1990); assay type: functional, cell-based
[7] = Luminescence Cell-Based Dose Retest to Confirm Inhibitors of Cancer Stem Cells. [Related pubchem assays (depositor defined):AID2717, AID2721]; assay type: functional; settings: Homo sapiens
[8] = viability of uninfected HEp-2 cells – cell-based, HTS, cytotoxicity control for RSV inhibitor project, dose response (AID 2410); assay type: functional; settings: human respiratory syncytial virus
Streptococcus = experiment: GAS UMAA2166 growth inhibition – luminescence, BacTiterGlo, counter-screen for streptokinase expression inhibitor project, dose response (AID 1915); assay type: functional, organism-based;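 note: potency for reduction of bacterial viability or growth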
[9] = tested on: Streptococcus sp. 'group A'; experiment: Streptococcus pyogenes SK(-)GAS viability under kanamycin – luminescence, BacTiterGlo, confirmation, counter-screen for streptokinase expression inhibitor project, dose response (AID 1900); assay type: functional, organism-based
[10] = Trypanosoma cruzi growth suppression in host cells – NIH3T3 host cells, beta-gal luminescence, confirmation (AID 2044); assay type: functional, cell-based;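 note: intracellular parasites grown in NIH/3T3 mouse fibroblasts as host cells; luminescent beta-galactosidase reporter signal from transgenic T. cruzi replicating inside host cells; inhibitors lower the luminescence signal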
[11] = NIH3T3 cell viability loss – ATP luminescence, mouse fibroblasts, counter-screen, dose response (AID 2010); assay type: functional, cell-based;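 note: cells exposed to compound for about 90 hours before reading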
[12] = NIH-3T3 fibroblast cytotoxicity, dose response, cytotoxicity control, cell-based, fluorescence, Alamar Blue, secondary assay (AID 2327); assay type: functional;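 note: NIH-3T3 mouse fibroblasts cultured with fluconazole at 8 µg/mL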
H9c2 = experiment: cells; assay type: functional, cell-based; settings: Rattus norvegicus, H9c2, Myocardium;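 note: confirmatory concentration-response retest of ultra-high-throughput screening hits for modulation of myocardial damage; cell death induced by hydrogen peroxide oxidative stress; compound pretreatment for 60 min then peroxide exposure for 2 h; potency is for protecting the cells against peroxide damage rather than for killing them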
[13] = target: T2, Replicative DNA helicase DnaB (Mycobacterium tuberculosis, UniProt P9WMR3); experiment: DnaB intein splicing inhibitors, dose response, biochemical, cell-free fluorescence (AID 449749); assay type: functional
T2 sequence (P9WMR3 whole entry): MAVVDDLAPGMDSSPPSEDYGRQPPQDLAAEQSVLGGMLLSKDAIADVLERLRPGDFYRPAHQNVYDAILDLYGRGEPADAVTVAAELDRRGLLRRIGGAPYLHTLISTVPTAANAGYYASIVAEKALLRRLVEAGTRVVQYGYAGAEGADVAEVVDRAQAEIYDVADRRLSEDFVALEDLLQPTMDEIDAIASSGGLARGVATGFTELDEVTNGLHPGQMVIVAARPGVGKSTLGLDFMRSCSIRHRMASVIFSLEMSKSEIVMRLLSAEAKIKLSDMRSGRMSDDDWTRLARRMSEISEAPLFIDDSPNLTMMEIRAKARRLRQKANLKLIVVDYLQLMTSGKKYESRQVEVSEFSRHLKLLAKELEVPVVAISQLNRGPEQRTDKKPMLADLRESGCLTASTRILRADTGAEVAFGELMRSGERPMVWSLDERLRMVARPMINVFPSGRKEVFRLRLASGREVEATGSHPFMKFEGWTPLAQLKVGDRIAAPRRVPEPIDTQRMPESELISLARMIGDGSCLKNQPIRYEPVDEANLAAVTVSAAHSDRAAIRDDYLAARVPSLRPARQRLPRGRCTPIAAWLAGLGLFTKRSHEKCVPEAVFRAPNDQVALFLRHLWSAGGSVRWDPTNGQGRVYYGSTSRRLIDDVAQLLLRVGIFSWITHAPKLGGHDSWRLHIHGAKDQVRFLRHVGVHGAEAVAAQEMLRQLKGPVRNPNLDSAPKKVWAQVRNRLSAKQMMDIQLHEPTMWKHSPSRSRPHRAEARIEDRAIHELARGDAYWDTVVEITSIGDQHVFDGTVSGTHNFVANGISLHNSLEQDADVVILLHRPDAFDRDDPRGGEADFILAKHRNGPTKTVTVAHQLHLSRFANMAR

Protein RecA = target: T3, Protein RecA (Mycobacterium tuberculosis, UniProt P9WHJ3); experiment: Fluorescence Cell-Free Homogeneous Dose Retest to Identify Inhibitors of RecA-Intein Splicing Activity. [Related pubchem assays (depositor defined):AID2097, AID2223, AID489010, AID492950]; assay type: functional
T3 sequence (P9WHJ3 whole entry): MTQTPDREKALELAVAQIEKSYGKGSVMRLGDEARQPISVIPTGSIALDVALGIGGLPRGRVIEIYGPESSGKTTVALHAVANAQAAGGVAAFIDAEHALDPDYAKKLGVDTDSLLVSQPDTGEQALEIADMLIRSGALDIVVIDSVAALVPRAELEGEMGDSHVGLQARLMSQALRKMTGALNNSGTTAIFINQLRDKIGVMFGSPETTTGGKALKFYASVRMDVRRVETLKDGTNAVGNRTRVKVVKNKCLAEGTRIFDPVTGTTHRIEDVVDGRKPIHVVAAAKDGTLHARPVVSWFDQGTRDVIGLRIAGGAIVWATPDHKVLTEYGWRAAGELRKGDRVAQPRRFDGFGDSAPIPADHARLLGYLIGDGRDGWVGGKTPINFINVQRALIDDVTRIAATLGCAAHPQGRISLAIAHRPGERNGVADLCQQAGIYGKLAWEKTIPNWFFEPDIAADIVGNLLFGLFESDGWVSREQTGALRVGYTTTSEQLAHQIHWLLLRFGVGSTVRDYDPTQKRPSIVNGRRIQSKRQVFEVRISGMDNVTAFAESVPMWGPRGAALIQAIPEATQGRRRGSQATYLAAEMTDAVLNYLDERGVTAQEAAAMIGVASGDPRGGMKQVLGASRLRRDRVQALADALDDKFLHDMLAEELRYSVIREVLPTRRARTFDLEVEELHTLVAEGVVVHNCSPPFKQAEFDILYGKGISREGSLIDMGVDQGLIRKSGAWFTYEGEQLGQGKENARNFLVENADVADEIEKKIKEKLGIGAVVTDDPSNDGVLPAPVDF

SMILES: CC(=O)c1c(C)c(C)c2n1CCn1c(C)ccc1-2
- IC50 [1]: 29 µM (active)

SMILES: CCn1ncc(C(=O)Nc2cccc(Cl)c2)c1C
- EC50 (H4): 109 µM (active)
- EC50 [2]: 0.244 µM (active)
- EC50 [3]: 5.61 µM (active)

SMILES: Cc1ccc(NC(=O)CN(C)CC(=O)Nc2ccc(F)c(F)c2F)c(Cl)c1
- EC50 [4]: > 120 µM (not active)
- EC50 [5]: > 120 µM (not active)
- EC50 [6]: > 120 µM (not active)

SMILES: COC(=O)c1c(NC(=O)CCNCc2ccco2)sc2c1CCC2
- IC50 [1]: 138 µM (active)

SMILES: COc1ccc(-c2nn(-c3ccccc3)cc2/C=C/C(=O)NCCCn2ccnc2)cc1OC
- EC50 [4]: > 60 µM (not active)
- EC50 [5]: > 120 µM (not active)
- EC50 [6]: > 120 µM (not active)

SMILES: CCOC(=O)c1cnc2c(OC)cccc2c1N1CCN(c2ccccc2OC)CC1
- EC50 [4]: 8.6 µM (active)
- EC50 [5]: > 120 µM (not active)
- EC50 [6]: 11.4 µM (active)

SMILES: C[C@@H]1CN([C@H](C)CO)C(=O)Cc2cc(NS(=O)(=O)c3ccc(Cl)cc3)ccc2O[C@H]1CN(C)Cc1ccc(C(F)(F)F)cc1
- AC50 [7]: 3.11 µM (active)

SMILES: CCOc1ccc(C(=O)Nc2ccc(S(=O)(=O)N3C[C@@H]4C[C@@H](C3)c3cccc(=O)n3C4)cc2)cc1
- CC50 [8]: 23.7 µM (active)

SMILES: O=C(NCc1ccc(F)cc1)C(=O)Nc1nc(C23CC4CC(CC(C4)C2)C3)cs1
- EC50 (Streptococcus): 2.55 µM (active)
- AC50 [7]: 1.91 µM (active)
- EC50 [9]: 0.823 µM (active)

SMILES: CN(C)c1ccc(/C=C2\CCC/C(=C\c3ccccc3)C2=O)cc1
- AC50 [7]: 3.81 µM (active)

SMILES: COc1ccc(CCNC(=O)c2coc(=O)c(Br)c2)cc1
- AC50 [7]: 7.39 µM (active)

SMILES: C=CCNC(=O)CN1CCN(C(c2ccccc2)c2ccccc2)CC1
- IC50 [1]: 168 µM (active)

SMILES: CCCCCSc1nc(N2CCOCC2)c2c(c1C#N)CC(C)(C)OC2
- EC50 [4]: > 120 µM (not active)
- EC50 [5]: 19.8 µM (active)
- EC50 [6]: > 120 µM (not active)

SMILES: Nc1n[nH]c(N)c1N=Nc1ccc2c(c1)OCO2
- EC50 [10]: > 60 µM (not active)
- IC50 [1]: 30.1 µM (active)
- EC50 [11]: > 60 µM (not active)

SMILES: CN(CC(=O)Nc1cccc(F)c1)C(=O)c1ccc(-c2ccc(Cl)cc2)o1
- CC50 [8]: 23.1 µM (active)

SMILES: Cc1c(Cl)cccc1N=C(S)N(Cc1cccs1)C1CCCC1
- EC50 [4]: > 120 µM (not active)
- EC50 [5]: > 120 µM (not active)
- EC50 [6]: > 120 µM (not active)

SMILES: CC1=C(C(=O)OC2CCCC2)C(c2coc3ccccc3c2=O)C2=C(O)CC(C)(C)CC2=N1 (stereo unspecified)
- AC50 [7]: 97.3 µM (active)

SMILES: O=C(NN1C(=O)NC2(CCCCC2)C1=O)c1ccc(-c2ccc(Cl)cc2)o1
- CC50 [8]: 22.3 µM (active)

SMILES: COc1ccc(C(=O)NNc2ccccc2)cc1OC
- EC50 [12]: 7.89 µM (active)
- AC50 [7]: 0.825 µM (active)

SMILES: O=C(CSC1=N/C(=C/c2ccc(Cl)c(Cl)c2)C(=O)N1c1ccccc1F)NC1CC1
- CC50 [8]: 24 µM (active)

SMILES: Cc1cc(SCC(=O)c2cccs2)n2nc(C)c(-c3ccc(Cl)cc3)c2n1
- AC50 [7]: 18.1 µM (active)

SMILES: N#C/C=C1\Sc2ccccc2C(=O)N1CC(=O)N1CCN(S(=O)(=O)c2ccccc2)CC1
- EC50 (H4): 46.7 µM (active)
- EC50 [2]: 13.2 µM (active)
- EC50 [3]: 16 µM (active)

SMILES: COc1cc(/C=C/c2nnc3c4ccccc4ncn23)cc(OC)c1OC
- IC50 (H9c2): > 79 µM (inactive)
- EC50 (H4): > 120 µM (not active)
- EC50 [2]: 8.84 µM (active)
- EC50 [3]: 29.1 µM (active)

SMILES: CCOc1cc(C=NNC(=O)c2cccc(S(=O)(=O)N3CCCC3)c2)ccc1O
- IC50 [1]: 32.3 µM (active)

SMILES: COc1nc(N/N=C/c2ccc(-c3ccccc3[N+](=O)[O-])o2)nc(N2CCOCC2)n1
- AC50 [13]: 16 µM (active)
- EC50 (H4): 24.7 µM (active)
- EC50 [2]: 12.4 µM (active)
- EC50 (Protein RecA): 14.4 µM (active)
- EC50 [3]: 22.5 µM (active)

SMILES: CC1(C)CC2CC(C)(CN2/C=N/c2sc3c(c2C#N)CC(C)(C)NC3(C)C)C1 (stereo unspecified)
- AC50 [7]: 1.04 µM (active)

SMILES: CCn1c(C)nc2cc(C(=O)N/N=C/c3ccc(O)cc3)ccc21
- IC50 [1]: 66.7 µM (active)

SMILES: CCCCc1ccc(/C(C)=N/Nc2cc(N3CCOCC3)nc(C)n2)cc1
- EC50 [10]: 2.06 µM (active)
- AC50 [7]: 3.08 µM (active)
- EC50 [11]: > 60 µM (not active)

Source: ChEMBL document CHEMBL1201862, “PubChem BioAssay data set” (2004)
